Experimental data reported in ChEMBL document CHEMBL2150995, “Identification of an Adamantyl Azaquinolone JNK Selective Inhibitor” (ACS Med Chem Lett, 2012).
Converted amounts (≈) assume the structure as drawn. The source made the active and inactive calls. No cut-off for these calls is given here.

Legend:
[1] = Plasma concentration in C57 mouse at 30 mg/kg, po measured at 8 hrs; type: ADME, organism-based; parameters: dose 30 mg/kg, route oral
[2] = Mean residence time in C57 mouse at 30 mg/kg, po; type: ADME, organism-based; parameters: dose 30 mg/kg, route oral; conditions: in vivo
[3] = Drug uptake in C57 mouse kidney at 30 mg/kg, po measured at 8 hrs; type: ADME, organism-based; parameters: dose 30 mg/kg, route oral; conditions: read-out: Drug uptake
[4] = Drug uptake in C57 mouse liver at 30 mg/kg, po measured at 8 hrs; type: ADME, organism-based; parameters: dose 30 mg/kg, route oral; conditions: read-out: Drug uptake
[5] = Tmax in C57 mouse at 30 mg/kg, po; type: ADME, organism-based; parameters: dose 30 mg/kg, route oral; conditions: in vivo
[6] = target: T1, Mitogen-activated protein kinase 8 (Homo sapiens, UniProt P45983); experiment: Inhibition of JNK1-mediated c-jun phosphorylation in TNF-alpha stimulated human HK-2 cells after 30 mins by TR-FRET assay; type: cell-based
[7] = target: T1, Mitogen-activated protein kinase 8; experiment: Inhibition of JNK1 after 30 mins by TR-FRET assay
[8] = AUC in C57 mouse at 30 mg/kg, po; type: ADME, organism-based; parameters: dose 30 mg/kg, route oral; conditions: plasma
[9] = Cmax in C57 mouse at 30 mg/kg, po; type: ADME, organism-based; parameters: dose 30 mg/kg, route oral; conditions: in vivo
[10] = Solubility of the compound in acetonitrile/water at pH 6.5 by lyophilization solubility assay; type: physicochemical
[11] = Clearance in mouse liver microsomes; type: ADME, Microsome
[12] = Clearance in mouse hepatocytes; type: ADME, cell-based, Liver, Hepatocyte
[13] = AUC (0 to 24 hrs) in C57 mouse at 5 mg/kg, iv; type: ADME, organism-based; parameters: time < 24 hr, dose 5 mg/kg, route intravenous; conditions: plasma
[14] = Clearance in rat at 5 mg/kg, iv administered as DMSO formulation; type: ADME, organism-based; parameters: dose 5 mg/kg, route intravenous; conditions: in vivo
[15] = Volume of distribution in C57 mouse at 5 mg/kg, iv administered as DMSO formulation; type: ADME, organism-based; parameters: dose 5 mg/kg, route intravenous; conditions: in vivo
[16] = Cmax in C57 mouse at 30 mg/kg, po administered as DMSO formulation; type: ADME, organism-based; parameters: dose 30 mg/kg, route oral; conditions: in vivo
Rattus norvegicus [17] = experiment: In vivo inhibition of JNK-mediated c-jun phosphorylation in Sprague-Dawley rat assessed as phosphorylated c-jun level in kidney at 75 mg/kg, po administered as single dose in MBP formulation 7 hrs prior TNF-alpha challenge measured 1 hr post challenge by Western blot method relative to untreated control; type: functional
[18] = AUC in C57 mouse at 75 mg/kg, po administered as MBP formulation; type: ADME, organism-based; parameters: dose 75 mg/kg, route oral; conditions: plasma
[19] = Solubility of the compound in MeOH solvate by lyophilization solubility assay; type: physicochemical
[20] = Tmax in rat at 30 mg/kg, po administered as DMSO formulation; type: ADME, organism-based; parameters: dose 30 mg/kg, route oral; conditions: in vivo
[21] = Extrapolated AUC in rat at 5 mg/kg, iv administered as DMSO formulation; type: ADME, organism-based; parameters: dose 5 mg/kg, route intravenous; conditions: in vivo
[22] = Tmax in C57 mouse at 75 mg/kg, po administered as MBP formulation; type: ADME, organism-based; parameters: dose 75 mg/kg, route oral; conditions: in vivo
[23] = Extrapolated AUC in C57 mouse at 5 mg/kg, iv administered as DMSO formulation; type: ADME, organism-based; parameters: dose 5 mg/kg, route intravenous; conditions: in vivo
[24] = Half life in rat at 5 mg/kg, iv administered as DMSO formulation; type: ADME, organism-based; parameters: dose 5 mg/kg, route intravenous; conditions: in vivo
[25] = Volume of distribution at steady state in C57 mouse at 5 mg/kg, iv; type: ADME, organism-based; parameters: dose 5 mg/kg, route intravenous; conditions: in vivo, read-out: Vdss
[26] = AUC in rat at 75 mg/kg, po administered as MBP formulation; type: ADME, organism-based; parameters: dose 75 mg/kg, route oral; conditions: plasma
Rattus norvegicus [27] = experiment: In vivo inhibition of JNK-mediated c-jun phosphorylation in Sprague-Dawley rat kidney at 75 mg/kg, po tid administered in MBP formulation 23 hrs prior TNF-alpha challenge measured 1 hr post challenge by Western blot method; type: functional, organism-based; parameters: dose 75 mg/kg
[28] = Half life in C57 mouse at 5 mg/kg, iv administered as DMSO formulation; type: ADME, organism-based; parameters: dose 5 mg/kg, route intravenous; conditions: in vivo
[29] = AUC in rat at 30 mg/kg, po administered as DMSO formulation; type: ADME, organism-based; parameters: dose 30 mg/kg, route oral; conditions: plasma
[30] = Volume of distribution in rat at 5 mg/kg, iv administered as DMSO formulation; type: ADME, organism-based; parameters: dose 5 mg/kg, route intravenous; conditions: in vivo
[31] = Half life in rat at 30 mg/kg, po administered as DMSO formulation; type: ADME, organism-based; parameters: dose 30 mg/kg, route oral; conditions: in vivo
[32] = Cmax in rat at 30 mg/kg, po administered as DMSO formulation; type: ADME, organism-based; parameters: dose 30 mg/kg, route oral; conditions: in vivo
[33] = Clearance in C57 mouse at 5 mg/kg, iv administered as DMSO formulation; type: ADME, organism-based; parameters: dose 5 mg/kg, route intravenous; conditions: in vivo
[34] = Tmax in C57 mouse at 30 mg/kg, po administered as DMSO formulation; type: ADME, organism-based; parameters: dose 30 mg/kg, route oral; conditions: in vivo
[35] = Tmax in rat at 75 mg/kg, po administered as MBP formulation; type: ADME, organism-based; parameters: dose 75 mg/kg, route oral; conditions: in vivo
[36] = Half life in C57 mouse at 75 mg/kg, po administered as MBP formulation; type: ADME, organism-based; parameters: dose 75 mg/kg, route oral; conditions: in vivo
[37] = Half life in rat at 75 mg/kg, po administered as MBP formulation; type: ADME, organism-based; parameters: dose 75 mg/kg, route oral; conditions: in vivo
[38] = Clearance in C57 mouse at 5 mg/kg, iv; type: ADME, organism-based; parameters: dose 5 mg/kg, route intravenous; conditions: in vivo
Rattus norvegicus [39] = experiment: In vivo inhibition of JNK-mediated c-jun phosphorylation in Sprague-Dawley rat kidney at 75 mg/kg, po bid administered in MBP formulation 23 hrs prior TNF-alpha challenge measured 1 hr post challenge by Western blot method; type: functional, organism-based; parameters: dose 75 mg/kg
[40] = AUC in C57 mouse at 30 mg/kg, po administered as DMSO formulation; type: ADME, organism-based; parameters: dose 30 mg/kg, route oral; conditions: plasma
[41] = Cmax in rat at 75 mg/kg, po administered as MBP formulation; type: ADME, organism-based; parameters: dose 75 mg/kg, route oral; conditions: in vivo
[42] = Mean residence time in rat at 5 mg/kg, iv administered as DMSO formulation; type: ADME, organism-based; parameters: dose 5 mg/kg, route intravenous; conditions: in vivo
[43] = Cmax in C57 mouse at 75 mg/kg, po administered as MBP formulation; type: ADME, organism-based; parameters: dose 75 mg/kg, route oral; conditions: in vivo
[44] = Mean residence time in C57 mouse at 5 mg/kg, iv administered as DMSO formulation; type: ADME, organism-based; parameters: dose 5 mg/kg, route intravenous; conditions: in vivo

T1 sequence (P45983 whole entry): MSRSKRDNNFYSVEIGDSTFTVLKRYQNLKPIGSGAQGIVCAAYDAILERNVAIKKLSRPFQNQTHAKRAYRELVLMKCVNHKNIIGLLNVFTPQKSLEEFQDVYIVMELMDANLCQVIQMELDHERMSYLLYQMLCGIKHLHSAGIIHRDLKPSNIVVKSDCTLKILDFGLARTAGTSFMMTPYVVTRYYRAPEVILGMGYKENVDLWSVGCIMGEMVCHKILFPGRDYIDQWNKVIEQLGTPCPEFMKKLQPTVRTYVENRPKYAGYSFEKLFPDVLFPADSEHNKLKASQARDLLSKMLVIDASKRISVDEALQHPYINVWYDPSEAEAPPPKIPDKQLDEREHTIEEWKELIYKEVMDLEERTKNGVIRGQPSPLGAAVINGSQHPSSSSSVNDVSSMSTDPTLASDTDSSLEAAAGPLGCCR

COC(=O)c1c(Cc2ccc(C(=O)N[C@H](CO)C(C)(C)C)cc2)c(=O)c2cccnc2n1-c1ccccc1
concentration at 8 h [1]: 20 nM | MRT [2]: 1.42 h | concentration at 8 h [3]: 30 nM | concentration at 8 h [4]: 230 nM | Tmax [5]: 0.25 h

COC(=O)c1c(Cc2ccc(C(=O)NCC(C)(C)O)cc2)c(=O)c2cccnc2n1-c1ccccc1
concentration at 8 h [1]: 740 nM | MRT [2]: 3.14 h | concentration at 8 h [3]: 1420 nM | concentration at 8 h [4]: 4000 nM | Tmax [5]: 0.25 h

COC(=O)c1c(Cc2ccc(C(=O)NC3(CO)CC3)cc2)c(=O)c2cccnc2n1-c1ccccc1
concentration at 8 h [1]: 380 nM | EC50 [6]: 21000 nM | MRT [2]: 1.73 h | IC50 [7]: 45 nM | concentration at 8 h [3]: 860 nM | AUC [8]: 7480 ng·h/mL | Cmax [9]: 4370 ng/mL | concentration at 8 h [4]: 4490 nM | solubility [10]: 138 µg/mL (≈ 285 µM) | CLhep predicted [11]: 45 mL/min/kg | CLhep predicted [12]: 33.2 mL/min/kg | Tmax [5]: 0.25 h

COC(=O)c1c(Cc2ccc(C(=O)N[C@@H]3[C@@H]4C[C@@H]5C[C@H]3C[C@@](O)(C5)C4)cc2)c(=O)c2cccnc2n1-c1ccccc1
AUC(0-t) at 24 h [13]: 9890 ng·h/mL | clearance [14]: 6.4 mL/min/kg | Vd [15]: 0.3 L/kg | Cmax [16]: 13600 ng/mL | inhibition in vivo at 75 mg/kg (Rattus norvegicus [17]): 52% | AUC [18]: 49200 ng·h/mL | solubility [19]: 14 µg/mL (≈ 24.8 µM) | concentration at 8 h [1]: 560 nM | EC50 [6]: 4100 nM | Tmax [20]: 4 h | MRT [2]: 2.38 h | AUC [21]: 16300 ng·h/mL | Tmax [22]: 1 h | AUC [23]: 9890 ng·h/mL | half-life [24]: 2.4 h | IC50 [7]: 12 nM | Vd [25]: 0.3 L/kg | AUC [26]: 252000 ng·h/mL | concentration at 8 h [3]: 860 nM | inhibition (Rattus norvegicus [27]): Active | AUC [8]: 22400 ng·h/mL | half-life [28]: 0.6 h | AUC [29]: 48300 ng·h/mL | Vd [30]: 0.61 L/kg | half-life [31]: 2.4 h | Cmax [9]: 13600 ng/mL | concentration at 8 h [4]: 2960 nM | solubility [10]: 14 µg/mL (≈ 24.8 µM) | CLhep predicted [11]: 59 mL/min/kg | Cmax [32]: 8030 ng/mL | CLhep predicted [12]: 10.9 mL/min/kg | clearance [33]: 8.4 mL/min/kg | Tmax [34]: 0.25 h | Tmax [35]: 4 h | half-life [36]: 1.62 h | half-life [37]: 2 h | clearance [38]: 8.4 mL/min/kg | inhibition (Rattus norvegicus [39]): Active | Tmax [5]: 0.25 h | AUC [40]: 22400 ng·h/mL | Cmax [41]: 30100 ng/mL | MRT [42]: 1.8 h | Cmax [43]: 18100 ng/mL | MRT [44]: 0.6 h

COC(=O)c1c(Cc2ccc(C(=O)N[C@H]3CC[C@H](O)CC3)cc2)c(=O)c2cccnc2n1-c1ccccc1
concentration at 8 h [1]: 810 nM | MRT [2]: 3.45 h | Vd [25]: 0.73 L/kg | concentration at 8 h [3]: 1890 nM | concentration at 8 h [4]: 5570 nM | Tmax [5]: 0.25 h

COC(=O)c1c(Cc2ccc(C(=O)N[C@@H]3[C@@H]4C[C@@H]5C[C@H]3C[C@@](N)(C5)C4)cc2)c(=O)c2cccnc2n1-c1ccccc1
solubility [10]: 21.9 µg/mL (≈ 38.9 µM)

COC(=O)c1c(Cc2ccc(C(=O)NC(C)(C)CO)cc2)c(=O)c2cccnc2n1-c1ccccc1
concentration at 8 h [1]: 380 nM | EC50 [6]: 9000 nM | MRT [2]: 2.03 h | IC50 [7]: 45 nM | concentration at 8 h [3]: 620 nM | AUC [8]: 7010 ng·h/mL | Cmax [9]: 3840 ng/mL | concentration at 8 h [4]: 2490 nM | solubility [10]: 103 µg/mL (≈ 212 µM) | CLhep predicted [11]: 58 mL/min/kg | CLhep predicted [12]: 52.9 mL/min/kg | Tmax [5]: 0.25 h

COC(=O)c1c(Cc2ccc(C(=O)N[C@H]3[C@@H]4C[C@@H]5C[C@H]3C[C@@](O)(C5)C4)cc2)c(=O)c2cccnc2n1-c1ccccc1
EC50 [6]: 8500 nM | IC50 [7]: 47 nM | solubility [10]: 25 µg/mL (≈ 44.4 µM) | CLhep predicted [11]: 81 mL/min/kg

COC(=O)c1c(Cc2ccc(C(=O)NCCO)cc2)c(=O)c2ccc(Cl)cc2n1-c1ccccc1
EC50 [6]: 10100 nM | IC50 [7]: 44 nM | solubility [10]: 4.6 µg/mL (≈ 9.37 µM) | CLhep predicted [11]: 67 mL/min/kg | CLhep predicted [12]: 31.7 mL/min/kg
